Laboratory results as given in US20210022342A1, “THE USE OF SAFENERS TO IMPROVE RESISTANCE OF RICE CROP TO HERBICIDES” (Adama Agan Ltd., priority 2018, published 2021).

Assays:
Assay type in all cases: in vivo
[1] = tested on: ACCase inhibitor resistant rice seeds (ML0831265-01493 (ATCC deposit PTA-12933, mutation G2096S)); assay: Safener seed treatment with propaquizafop or quizalofop: regrowth of resistant rice
Experimental: (§1) Seeds of a proprietary ACCase resistant rice variety, i.e. RTA1, was used. RTA1, ML0831265-01493 (ATCC deposit PTA-12933, mutation G2096S) variety rice seeds were supplied by RiceTec. RTA1 rice cultivar contains a single mutation in the ACCase gene that confer ACCase resistance. The mutation makes the enzyme insensitive to quizalofop.
(§2) Mutant rice seeds were planted in commercial greenhouse soil mix in 10×10×10 cm plastic pots. 250 mL of soil was put into each pot, then the seeds were placed on top of the soil and the seeds were covered with 100-150 mL of soil. Approximately 8-10 seeds were planted per pot. The pots were then watered with 100 mL of a mixture of Miracle Grow and Fertiplus (iron supplement). The pots were placed in the greenhouse (38° C./20° C. day/night, 14 h photoperiod with supplemental light). The average light intensity in the greenhouse was 150 μM/m^2/sec.
Plants were grown until 10 days after planting and then the pots were transferred to trays and the plants were grown under water. :Plants were treated when they reached the 3-5 leaf stage. […]
(§3) Four days after treatment, the tops of the plants were cut off so that approximately 2.5 cm of plant from the top of the soil remain. The plants were allowed to regrow for 3 days at which time the amount of regrowth was weighed by measuring the amount of fresh weight of tissue that regrew. Comparing the weight of regrowth of shoots after cutting indicates the level of phytotoxicity the herbicide had on the mutant rice plant and the increased level of resistance of the mutant rice to the herbicide when the herbicide was applied in combination with the safener.
The safeners were also applied in various w/w ratios of the ACCase inhibiting herbicides to the rice seeds.

[2] = tested on: mutant rice (ML0831265-01493, ATCC deposit PTA-12933, mutation G2096S); assay: Tank mixes of safeners with propaquizafop or quizalofop: regrowth of mutant rice
Experimental: as §1, §2
Plants were grown until 10 days after planting and then the pots were transferred to trays and the plants were grown under water. :Plants were treated when they reached the 3-5 leaf stage.
Safeners were tank mixed with the herbicide in the spray bottle.
as §3
The safeners were applied in various w/w ratios with the ACCase inhibiting herbicides to the rice plant.

[3] = tested on: wild type rice (Non-Traited Rice); assay: Imazamox dose response with or without isoxadifen, regrowth, wild type rice; settings: for Calculated effect of Safener (relative fresh weight re-growth): difference with and without isoxadifen on Non-Traited Rice
Experimental: (§4) Seed of an ALS resistant rice variety (rice plant with the A205V and G654E substitution (ATCC accession numbers PTA-123859, PTA-123860 and/or PTA-123861) is planted in a commercial greenhouse soil mix in 10×10×10 cm plastic pots. 250 mL of soil is put into each pot, then the seed is placed on top of the soil and the seed is covered with 100-150 mL of soil. Approximately 8-10 seeds are planted per pot. The pots are then watered with 100 mL of a mixture of Miracle Grow and Fertiplus (iron supplement). The pots are placed in the greenhouse (38° C./20° C. day/night, 14 h photoperiod with supplemental light). The average light intensity in the greenhouse is 150 μM/m^2/sec.
(§5) Plants are grown until 10 days after planting and then the pots are transferred to trays and the plants are grown under water. Plants are treated when they reach the 3-5 leaf stage.
(§6) Generally, plants are treated through a moving nozzle spray system in a spray volume of 200 l/ha or 187 l/ha. Isoxadifen is tank mixed with the herbicide in the spray bottle at a rate of 100 g/ha.
(§7) Four days after treatment, the tops of the plants are cut off to approximately 3 cm from the top of the soil. The plants are allowed to regrow for 7 days at which time the amount of regrowth is measured by cutting any growth above 3 cm above the top of soil and weighing the tissue that regrew.
(§8) The imazamox (in rates of 0, 2.2, 6.6, 19.7, 54.9 and 177.3 g/ha) was applied on wild type rice and herbicide resistance rice in the presence or absence of safener (isoxadifen at 100 g/ha).
(§9) The improvement in regrowth was calculated by subtracting the regrowth from a) wild type rice and wild type rice with isoxadifen; b) herbicide resistant rice; and c) herbicide resistant rice and isoxadifen.
(§10) Calculations were done for each application rate of imazamox. The efficacy of safener alone and mutation alone on decreasing herbicide effect/increasing herbicide resistance were calculated. The relative fresh weight re-growth is the percentage of activity (for Colby).
(§11) The re-growth data was implemented in curve and the synergistic effect was calculated. The observed efficacy is higher than calculated efficacy.

[4] = tested on: ALS resistant rice variety (A205V and G654E substitution); assay: Imazamox dose response with or without isoxadifen, regrowth, ALS resistant rice
Experimental: as §4, §5, §6, §7
Efficacy tests were conducted to determine the effect of imazamox on rice plant with the A205V and G654E substitutions (ATCC accession numbers PTA-123859, PTA-123860 and/or PTA-123861) in the presence of safener (isoxadifen).
as §8, §9, §10, §11

[5] = propaquizafop, safener seed treatment 0.5 g/kg of seed
[6] = propaquizafop, safener seed treatment 1 g/kg of seed
[7] = propaquizafop, safener seed treatment 2 g/kg of seed
[8] = quizalofop, safener seed treatment 0.5 g/kg of seed
[9] = quizalofop, safener seed treatment 1 g/kg of seed
[10] = quizalofop, safener seed treatment 2 g/kg of seed
[11] = tank mix with propaquizafop 50 g/ha, safener 12.5 g/ha
[12] = tank mix with propaquizafop 50 g/ha, safener 25 g/ha
[13] = tank mix with propaquizafop 50 g/ha, safener 50 g/ha
[14] = tank mix with propaquizafop 50 g/ha, safener 100 g/ha
[15] = tank mix with quizalofop 40 g/ha, safener 12.5 g/ha
[16] = tank mix with quizalofop 40 g/ha, safener 25 g/ha
[17] = tank mix with quizalofop 40 g/ha, safener 50 g/ha
[18] = tank mix with quizalofop 40 g/ha, safener 100 g/ha

CC(C)=NOCCOC(=O)[C@@H](C)Oc1ccc(Oc2cnc3cc(Cl)ccc3n2)cc1 [Propaquizafop, (R)-2-[[(1-methylethylidene)amino]oxy]ethyl 2-[4-[(6-chloro-2-quinoxalinyl)oxy]phenoxy]propanoate]
Regrowth (fresh weight mg) ([1]; propaquizafop, seeds without safener): 55 mg
Regrowth (fresh weight mg) ([2]; propaquizafop 50 g/ha, no safener): 25 mg

Clc1cc(Cl)nc(-c2ccccc2)n1 [Fenclorim, fenclorim]
Regrowth (fresh weight mg) [1, 5]: 137 mg
Regrowth (fresh weight mg) [1, 6]: 195 mg
Regrowth (fresh weight mg) [1, 7]: 283 mg
Regrowth (fresh weight mg) [1, 8]: 163 mg
Regrowth (fresh weight mg) [1, 9]: 167 mg
Regrowth (fresh weight mg) [1, 10]: 180 mg
Regrowth (fresh weight mg) [2, 11]: 15 mg
Regrowth (fresh weight mg) [2, 12]: 13 mg
Regrowth (fresh weight mg) [2, 13]: 15 mg
Regrowth (fresh weight mg) [2, 14]: 15 mg
Regrowth (fresh weight mg) [2, 15]: 42 mg
Regrowth (fresh weight mg) [2, 16]: 52 mg
Regrowth (fresh weight mg) [2, 17]: 67 mg
Regrowth (fresh weight mg) [2, 18]: 55 mg

O=C(O)COc1ccc(Cl)c2cccnc12 [Cloquinoce, cloquintocet]
Regrowth (fresh weight mg) [1, 5]: 275 mg
Regrowth (fresh weight mg) [1, 6]: 342 mg
Regrowth (fresh weight mg) [1, 7]: 358 mg
Regrowth (fresh weight mg) [1, 8]: 143 mg
Regrowth (fresh weight mg) [1, 9]: 145 mg
Regrowth (fresh weight mg) [1, 10]: 273 mg
Regrowth (fresh weight mg) [2, 11]: 42 mg
Regrowth (fresh weight mg) [2, 12]: 90 mg
Regrowth (fresh weight mg) [2, 13]: 158 mg
Regrowth (fresh weight mg) [2, 14]: 355 mg
Regrowth (fresh weight mg) [2, 15]: 172 mg
Regrowth (fresh weight mg) [2, 16]: 132 mg
Regrowth (fresh weight mg) [2, 17]: 252 mg
Regrowth (fresh weight mg) [2, 18]: 398 mg

O=C(C(Cl)Cl)N1CCOC12CCCCC2 [AD-67]
Regrowth (fresh weight mg) [1, 5]: 173 mg
Regrowth (fresh weight mg) [1, 6]: 113 mg
Regrowth (fresh weight mg) [1, 7]: 170 mg
Regrowth (fresh weight mg) [1, 8]: 233 mg
Regrowth (fresh weight mg) [1, 9]: 285 mg
Regrowth (fresh weight mg) [1, 10]: 298 mg
Regrowth (fresh weight mg) [2, 11]: 68 mg
Regrowth (fresh weight mg) [2, 12]: 222 mg
Regrowth (fresh weight mg) [2, 13]: 288 mg
Regrowth (fresh weight mg) [2, 14]: 512 mg
Regrowth (fresh weight mg) [2, 15]: 202 mg
Regrowth (fresh weight mg) [2, 16]: 292 mg
Regrowth (fresh weight mg) [2, 17]: 348 mg
Regrowth (fresh weight mg) [2, 18]: 505 mg

COCc1cnc(C2=NC(C)(C(C)C)C(=O)N2)c(C(=O)O)c1 (racemic) [Imazamox, 2-[(RS)-4-isopropyl-4-methyl-5-oxo-2-imidazolin-2-yl]-5-methoxymethylnicotinic acid]
Relative fresh weight re-growth after treatment ([3]; Non-Traited Rice, imazamox 2.2 g/ha): 0.36
Relative fresh weight re-growth after treatment ([3]; Non-Traited Rice, imazamox 6.6 g/ha): 0.16
Relative fresh weight re-growth after treatment ([3]; Non-Traited Rice, imazamox 19.7 g/ha): 0.14
Relative fresh weight re-growth after treatment ([3]; Non-Traited Rice, imazamox 54.9 g/ha): 0.11
Relative fresh weight re-growth after treatment ([3]; Non-Traited Rice, imazamox 177.3 g/ha): 0.09
Relative fresh weight re-growth after treatment ([3]; Safener & Non-Traited Rice (isoxadifen 100 g/ha), imazamox 2.2 g/ha): 0.47
Relative fresh weight re-growth after treatment ([3]; Safener & Non-Traited Rice (isoxadifen 100 g/ha), imazamox 6.6 g/ha): 0.17
Relative fresh weight re-growth after treatment ([3]; Safener & Non-Traited Rice (isoxadifen 100 g/ha), imazamox 19.7 g/ha): 0.06
Relative fresh weight re-growth after treatment ([3]; Safener & Non-Traited Rice (isoxadifen 100 g/ha), imazamox 54.9 g/ha): 0.05
Relative fresh weight re-growth after treatment ([3]; Safener & Non-Traited Rice (isoxadifen 100 g/ha), imazamox 177.3 g/ha): 0.05
Efficacy at ED50 of mutant- 42 g/ha (%) ([3]; calculated effect of safener alone, imazamox 42 g/ha): 0%
Calculated effect of Safener (relative fresh weight re-growth) ([3]; imazamox 2.2 g/ha): 0.12
Calculated effect of Safener (relative fresh weight re-growth) ([3]; imazamox 6.6 g/ha): 0.02
Calculated effect of Safener (relative fresh weight re-growth) ([3]; imazamox 19.7 g/ha): −0.08
Calculated effect of Safener (relative fresh weight re-growth) ([3]; imazamox 54.9 g/ha): −0.06
Calculated effect of Safener (relative fresh weight re-growth) ([3]; imazamox 177.3 g/ha): −0.04
increase of resistance (ED50) by the safener ([3]; wildtype rice with safener vs without): 4 folds
Relative fresh weight re-growth after treatment ([4]; Mutant & Safener (isoxadifen 100 g/ha), imazamox 2.2 g/ha): 1.17
Relative fresh weight re-growth after treatment ([4]; Mutant & Safener (isoxadifen 100 g/ha), imazamox 6.6 g/ha): 1.33
Relative fresh weight re-growth after treatment ([4]; Mutant & Safener (isoxadifen 100 g/ha), imazamox 19.7 g/ha): 1.14
Relative fresh weight re-growth after treatment ([4]; Mutant & Safener (isoxadifen 100 g/ha), imazamox 54.9 g/ha): 0.53
Relative fresh weight re-growth after treatment ([4]; Mutant & Safener (isoxadifen 100 g/ha), imazamox 177.3 g/ha): 0.13
Relative fresh weight re-growth after treatment ([4]; Mutant, no safener, imazamox 2.2 g/ha): 0.93
Relative fresh weight re-growth after treatment ([4]; Mutant, no safener, imazamox 6.6 g/ha): 0.99
Relative fresh weight re-growth after treatment ([4]; Mutant, no safener, imazamox 19.7 g/ha): 0.68
Relative fresh weight re-growth after treatment ([4]; Mutant, no safener, imazamox 54.9 g/ha): 0.42
Relative fresh weight re-growth after treatment ([4]; Mutant, no safener, imazamox 177.3 g/ha): 0.15
Calculated efficacy base on Colby (%) ([4]; expected for mutant & safener, imazamox 42 g/ha): 50%
additive effect of safener and mutant on ED50 ([4]; expected, 4+85): 89 folds
observed increase in ED50 ([4]; herbicide resistant rice with safener vs the wildtype): 120 folds
Observed efficacy (%) ([4]; mutant & safener, imazamox 42 g/ha): 77%
Efficacy at ED50 of mutant- 42 g/ha (%) ([4]; mutant alone, imazamox 42 g/ha): 50%
increase in tolerance to herbicide (ED50) by the mutation ([4]; mutant rice vs wildtype rice, no safener): 85 fold

CC1COc2ccccc2N1C(=O)C(Cl)Cl (centres unmarked) [Benzacor, benoxacor]
Regrowth (fresh weight mg) [1, 5]: 37 mg
Regrowth (fresh weight mg) [1, 6]: 107 mg
Regrowth (fresh weight mg) [1, 7]: 98 mg
Regrowth (fresh weight mg) [1, 8]: 90 mg
Regrowth (fresh weight mg) [1, 9]: 72 mg
Regrowth (fresh weight mg) [1, 10]: 78 mg
